Test results as given in patent US6780650B2 (priority 2000, dated 2004).
Read-outs that look alike come from different tables or passages of the source.

Columns and labels:
hVR1 receptor [1] = target: T1, hVR1 receptor (Homo sapiens, UniProt Q8NER1); assay type: binding; settings: pH 8
T1 construct: expressed in transfected cells; host or cells: HEK 293 (HEK 293-hVR1, zeocin-selected); membranes

hVR1 receptor [2] = target: T1, hVR1 receptor; settings: read-out: IC50, inhibition of [^3H]RTX binding to hVR1 receptor
hVR1 receptor [3] = target: T1, hVR1 receptor; assay type: binding; settings: for Kd: read-out: Kd of [^3H]RTX binding to hVR1 receptor

T1 sequence (Q8NER1 whole entry): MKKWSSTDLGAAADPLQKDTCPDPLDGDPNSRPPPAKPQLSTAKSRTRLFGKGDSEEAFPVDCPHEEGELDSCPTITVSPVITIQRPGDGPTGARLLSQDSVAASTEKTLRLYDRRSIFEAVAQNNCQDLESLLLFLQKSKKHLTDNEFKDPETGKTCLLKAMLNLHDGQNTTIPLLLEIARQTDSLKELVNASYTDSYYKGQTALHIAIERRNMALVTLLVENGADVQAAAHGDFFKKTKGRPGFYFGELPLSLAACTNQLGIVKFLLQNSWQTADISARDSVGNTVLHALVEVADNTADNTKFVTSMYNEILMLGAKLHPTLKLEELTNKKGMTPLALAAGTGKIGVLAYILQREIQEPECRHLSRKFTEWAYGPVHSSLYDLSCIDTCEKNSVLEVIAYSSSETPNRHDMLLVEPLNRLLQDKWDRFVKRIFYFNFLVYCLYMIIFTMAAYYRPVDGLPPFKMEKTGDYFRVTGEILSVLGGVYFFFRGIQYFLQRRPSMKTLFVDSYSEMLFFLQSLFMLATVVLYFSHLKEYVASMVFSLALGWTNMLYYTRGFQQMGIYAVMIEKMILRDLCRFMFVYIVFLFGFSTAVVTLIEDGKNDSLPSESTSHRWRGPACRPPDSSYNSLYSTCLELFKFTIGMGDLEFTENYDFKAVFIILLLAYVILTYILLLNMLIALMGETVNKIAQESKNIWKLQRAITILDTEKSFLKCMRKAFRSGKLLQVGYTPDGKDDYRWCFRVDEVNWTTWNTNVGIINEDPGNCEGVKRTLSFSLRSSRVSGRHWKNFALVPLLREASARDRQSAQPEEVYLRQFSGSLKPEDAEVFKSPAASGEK

SMILES: O=C(O)CN(CCOCCOCCN(CC(=O)O)CC(=O)O)CC(=O)O [EGTA]
- inhibition of [^3H]RTX binding (hVR1 receptor [1]): 70%

SMILES: C=C(C)[C@]12C[C@@H](C)[C@@]34O[C@](Cc5ccccc5)(O[C@@H]1[C@@H]3C=C(COC(=O)Cc1ccc(O)c(OC)c1)C[C@]1(O)C(=O)C(C)=C[C@@H]41)O2 [Resiniferatoxin]
- IC50 (hVR1 receptor [2]; pH 7.4): 0.78 ± 0.15 nM
- IC50 (hVR1 receptor [2]; pH 8.6): 0.25 ± 0.03 nM

SMILES: C=C(C)[C@]12C[C@@H](C)[C@@]34O[C@](Cc5ccccc5)(O[C@@H]1[C@@H]3C=C(COC(=O)Cc1ccc(O)c(OC)c1)C[C@]1(O)C(=O)C(C)=C[C@@H]41)O2 [[^3H]RTX, [^3H]resiniferatoxin]
- Kd (hVR1 receptor [3]; pH 5.1): 6.62 ± 5.58 nM
- Bmax of [^3H]RTX binding to hVR1 receptor (hVR1 receptor [3]; pH 7.4): 928 ± 53 fmol/mg protein
- Kd (hVR1 receptor [3]; pH 7.4): 0.65 ± 0.12 nM
- Bmax of [^3H]RTX binding to hVR1 receptor (hVR1 receptor [3]; pH 8.6): 869 ± 41 fmol/mg protein
- Kd (hVR1 receptor [3]; pH 8.6): 0.18 ± 0.04 nM
- Bmax of [^3H]RTX binding to hVR1 receptor (hVR1 receptor [3]; pH 9.6): 661 ± 127 fmol/mg protein
- Kd (hVR1 receptor [3]; pH 9.6): 0.6 ± 0.31 nM
